# Results taken from patent US6013642A, “Use of estrone derivatives as steroid sulphatase inhibitors” (priority 1994, dated 2000).
# Tests used:
# [1] = system: rat delayed type hypersensitivity model; assay: Delayed type hypersensitivity in the rat; format: in vivo, Lewis rats; settings: FIG. 12; CT2251 0.1, 1, 10 mg/kg s.c. days 0, 3 and 4; 24 and 48 h
# Protocol: Lewis rats were sensitised with SRBC IV and challenged 4 days later with 10^8 SRBC into the footpad. The resulting swelling response was measured 24 and 48 h later. Rats were randomised into 5 groups (n=6-7) and steroids given on days 0, 3 and 4, subcutaneously. Results given as mean±sem.
# [2] = system: mouse contact sensitisation model; assay: Contact sensitisation (oxazalone, ear swelling) in mice; format: in vivo
# Protocol: 1. Contact Sensitisation (CS)
# On day 0, mice were painted on their shaved right flank with 50 μl 2.5% oxazalone or vehicle (acetone 4:1 olive oil). On day 5 animals were challenged on their dorsal right ear surface with 25 μl of either 0.75% or 0.25% oxazalone. Prior to ear challenge, and 24, 48 and 72 hour post challenge ear thickness was measured using an engineer's micrometers. Ear swelling is determined as the difference in thickness prior and post challenge. The data are expressed as percentage change from the vehicle treated groups given sensitisation and challenge.
# DHEA, DHEAS were administered at various times, generally at time of sensitisation (day 0) and time of challenge (day 3 or 4-DTH model, day 4 or 5-(CS-model) in order to obtain an augmentation of the immune response above non-steroid treated animals.
# Different doses of the inhibitors have been used, and compared to the effect of dexamethasone as potential immunosuppressive/anti-inflammatory agents.
# [3] = system: mouse delayed type hypersensitivity model; assay: Delayed type hypersensitivity (SRBC, footpad swelling) in the mouse; format: in vivo; settings: FIG. 11, 24 h post challenge
# Protocol: 2. Delayed Type Hypersensitivity (DTH)
# On day 0, animals were injected intravenously with 10^6 washed SRBC in 0.1 ml saline. Four days later animals were challenged in the right hind footpad with 10^6 washed SRBC in 50 μl saline. Footpad thickness is measured prior to challenge, 24, 48 and 72 hours post challenge using calipers. Footpad swelling is determined as the difference in thickness prior and post challenge. The data are expressed as percentage change from the vehicle treated groups given sensitisation and challenge.
# Animals were randomised into 10 groups (n=7-8) and steroids given on day 0 and 4.
# Steroids were given on day 0 and 3 subcutaneously. Response at 24 h post challenge. Results given as mean±sem. $, *p<0.05 ANOVA.
smiles,measurement,setting,value
"C[C@]12CC[C@@H]3c4ccc(OS(N)(=O)=O)cc4CC[C@H]3[C@@H]1CCC2=O [CT 2251, Estrone 3-0-sulphamate]",DTH footpad swelling response,[1],can also suppress a DTH response in rats
same,"normal ear swelling response, inhibitor on its own","[2]; Experiment 4, FIG. 7, CT2251 0.1 and 10 mg/kg s.c. days 0 and 4",significantly inhibited the normal ear swelling response
same,effect on DHEA-augmented ear swelling,"[2]; Experiment 4, FIG. 7, CT2251 0.1 and 10 mg/kg with DHEA 5 mg/kg s.c. days 0 and 4",not that seen with DHEA
same,effect on DHEAS-augmented ear swelling,"[2]; Experiment 4, FIG. 7, CT2251 0.1 and 10 mg/kg with DHEAS 5 mg/kg s.c. days 0 and 4",reversed the augmentation seen with DHEAS
same,degree of ear swelling,"[2]; Experiment 5, FIG. 8, CT2251 0.001-0.3 mg/kg s.c. days 0 and 4, 24 h",inhibited by CT2251 treatment in a dose-dependent manner
same,inhibitory effect on ear swelling in presence of increasing substrate,"[2]; Experiment 6, FIG. 9, CT2251 0.1 mg/kg with DHEAS 5, 15, 50 mg/kg days 0 and 4, 24 h",can be reverse by increasing doses of DHEAS
same,minimal effective dose,"[2]; Mus musculus, sc, Experiment 5, FIG. 8, s.c. days 0 and 4, 24 h, read-out: effective dose for inhibition of ear swelling",≥ 0.1 mg/kg
same,"foot swelling response, inhibitor on its own",[3]; CT2251 0.1 and 10 mg/kg s.c.,can markedly reduce the foot swelling response
same,effect on DHEAS-mediated augmentation of foot swelling,[3]; CT2251 0.1 and 10 mg/kg with DHEAS 5 mg/kg s.c.,can effectively reverse the DHEAS-mediated augmentation
